As a reminder, the inhibition is the percentage by which the read-out fell short of the control. Usually inhibition in vivo stands for how much of the control response was suppressed. High values mean a strong effect, low ones a weak effect.

Experiment [1] concerns Leukotriene B4 production in whole human blood. Briefly: In vitro human whole blood Leukotriene B4 inhibition. The experiment is classed as cell-based. As to conditions: A23187 stimulated, read-out: IC50 (concentration producing 50% inhibition of LTB4 production). As for the experimental part: IN VITRO HUMAN WHOLE BLOOD LEUKOTRIENE B4 INHIBITION
The test method described below measures the ability of compounds to inhibit the production of Leukotriene B4 in whole human blood.
Whole human blood is collected by venipuncture into a 60 cc syringe containing 100 units of heparin.
compounds are disolved in dimethyl sulfoxide. Compounds are tested at concentrations of 100, 33, 11, 3.7, 1.2 and 0.41 μM. Each concentration is tested in duplicate.
Aliquots (1 μL) of compound solution are added to 1 mL polyethylene tubes followed by the addition of 500 μL portion of heparinized blood. The tubes are mixed thoroughly then allowed to preincubate at ambient temperature for 15 minutes. A 25 μL portion of 1 mM Calcium Ionophore A23187 in dimethyl sulfoxide/Tris buffer is added to the tubes. The tubes are mixed thoroughly then incubated at 37° C. for 30 minutes.
The tubes are centrifuged at 2000 rpm for 10 minutes. 100 μL portions of plasma are transferred to 1 mL polyethylene tubes containing 400 μL portions of methanol. The tubes are vortexed then frozen at -20° C. overnight.
The tubes are centrifuged for 10 minutes then 100 μL portions of methanol supernatant are transferred to a 96 well microtiter plate. 10 μL portions are transferred from this plate to a 96 well assay plate. Methanol dilutions of LTB4 standard curve are added to the assay plate. 10 μL portions of blank methanol/plasma supernatant are added to each standard curve well. The assay plate is vacuum dried at ambient temperature. The radioimmunoassay buffer is added, the plate is bath-sonicated for 5 minutes then assayed according to the manufacturer's instructions (Advanced Magnetics; Cambridge, Mass.). Inhibition of LTB4 production is calculated as the ratio of the amount of LTB4 formed in the presence (LTB4 +cpd) and absence (LTB4 no cpd) of compound according the equation below. [formula] IC50 values (concentration of compound producing a 50% inhibition of LTB4 production) are calculated by linear regression analysis of percentage inhibition versus log compound concentration plots.

The test system of experiment [2] is Leukotriene C4 production in mouse peritoneal macrophages. The experiment in a line: In vitro mouse peritoneal macrophage Leukotriene C4 inhibition. As to conditions: zymosan stimulated, read-out: Percent Inhibition. The experiment is classed as cell-based. Here is the method: IN VITRO MOUSE PERITONEAL MACROPHAGE LEUKOTRIENE C4 INHIBITION
The test described below measures the ability of compounds to inhibit the production of Leukotriene C4 in mouse peritoneal macrophages.
Mice (female, CD-1, weighing 25 g) are euthanized by exposure to carbon dioxide. The pertoneal cavity is exposed by peeling back the abdominal skin. A 5 mL portion of media (M199 containing 1% fetal bovine serum, 100 units/mL of penicillin, 100 μg/mL streptomycin, 20 units/mL of heparin and no glutamine) is injected into the exposed peritoneal cavity of each mouse. The lavage fluid is removed and pooled to yield proximately 1×10^6 macrophages/mL. A 2 mL portion of lavage fluid is added to each well of a 24 well sterile multidish and the marcophages are allowed to adhere to the plate for 2 hours at 37° C. in a 5% carbon dioxide atmosphere. The media is removed and each well is washed with 2 mL of phosphate buffered saline (PBS). A 1 mL portion of media, without heparin, but containing 5 μCi/mL of 3H-myoinositol is added to each well and the plates are incubated overnight at 37° C. in a 5% carbon dioxide atmosphere. The media is removed and the cells are washed twice with 2 mL portions of PBS. A 1 mL portion of Puck's saline formulation A containing 1 mM calcium chloride, 1 mM magnesium chloride and 10 mM lithium chloride is added to each well. (The Puck's formulation is made first as a 10× solution which contains 4 g of potassium chloride, 80 g of sodium chloride and 10 g of glucose per liter. The Puck's saline formulation A is made using 10 mL of the 10× Puck's formulation, 0.47 mL of 7.5% sodium bicarbonate and 2 mL of 1M N-2-hydroxyethylpiperazine-N'-2-ethanesulfonic acid per 100 mL.)
Compounds are dissolved in dimethyl sulfoxide. Compounds are tested at concentrations of 10, 1 and 0.1 μM. Each concentration is tested in duplicate.
A 1 μL portion of compound solution or vehicle (DMSO) is added to each well and the plates are incubated for 15 minutes at 37° C. in a 5% carbon dioxide atmosphere. Zymosan is then added to provide a final concentration of 50 μg/mL in each well and the plate is incubated for 1 to 2 hours at 37° C. in a 5% carbon dioxide atmosphere.
Following incubation 200 μL portions of media are transferred to 12×75 mm tubes. The tubes are either assayed immediately or stored at -20° C. until they can be assayed.
The media is assayed for the presence of Leukotriene C4 by radioimmunoassay which is performed according to the manufacturer's instructions (Advanced Magnetics; Cambridge, Mass.). Inhibition of LTC4 production is calculated as the ratio of the amount of LTC4 formed in the presence (LTC4 +cpd) and absence (LTC4 no cpd)of compound according to the equation below. [formula] IC50 values (concentration of compound producing a 50% inhibition of LTC4 production) are calculated by linear regression analysis of percentage inhibition versus log compound concentration plots.

Experiment [3] concerns Leukotriene B4 production in rat blood. The experiment in a line: Rat ex vivo Leukotriene B4 inhibition. The experiment is classed as in vivo. The settings on record: 2 hours post dose, ex vivo A23187 challenge; for inhibition in vivo at 50 mg/kg: 50 mg/Kg oral. Here is the method: RAT EX VIVO LEUKOTRIENE B4 INHIBITION
The test method described below measures the ability of a compound when administrated orally to rats to inhibit the production of Leukotriene B4 in their blood which is drawn and challenged.
Rats (CD, male, non-fasted, 250 g) are lightly anesthetized with carbon dioxide and an approximately 0.75 mL sample of whole blood is obtained via cardiac puncture. The sample is dispensed into 12×75 mm polypropylene tubes containing 8-10 μL of 10,000 units/mL heparin, mixed and then maintained on ice. The rats are allowed to recover approximately one hour then dosed orally with compound dissolved in PEG 400 at a 5 mL/Kg volume. Five (5) rats are utilized per group. Two (2) hours post dose the rats are again anesthetized with carbon dioxide and the blood sampled again via cardiac puncture.
Duplicate 200 μL portions of blood are added to 1.0 mL polypropylene tubes. A 10 μL portion of 1 mM A23 187 Calcium Ionophore in dimethyl sulfoxide/Tris buffer is added to each tube. The tubes are gently vortexed then incubated in a 37° C. water bath for 30 minutes. The tubes are then centrifuged at 4000 rpm for 10 minutes. 50 μL portions of plasma are transferred to 1.0 mL tubes containing 200 μL of methanol. The tubes are vortexed then placed in the freezer overnight.
The tubes are removed from the freezer then centrifuged at 4000 rpm for 10 minutes. 20 μL portions of the methanol/plasma supernatant and 10 μl methanol dilutions of LTB4 standard are transferred to 96 well v-bottom microtiter plates. The plates are vacuum dried at 40° C. A 40 μL portion of LTB4 radioimmunoassay buffer is added to each well. The plate is bath sonicated for 5 minutes then assayed according to the manufacturer's instructions (Advanced Magnetics; Cambridge, Mass.). Percent inhibition values are obtained by comparing the level of LTB4 in the post-dose samples to the level in the pre-dose samples according to the equation below. [formula]

Regarding `CN(O)C(=O)Nc1ccc(Cc2ccc(NC(=O)N(C)O)cc2)cc1` [Example 1, 4,4'-Methylenebis(1-hydroxy-1-methyl-3-phenylurea)], the IC50 in experiment [1] is 550 nM. For the same compound, in experiment [2], the inhibition at 0.1 µM is 61%, the inhibition at 1 µM stood at 95% and the inhibition at 10 µM was 100%. This compound had an inhibition in vivo at 10 mg/kg in experiment [3] (10 mg/Kg oral) of 16%. For the same compound, 50 mg/kg produced 93% inhibition in vivo in experiment [3].

`CC(C)N(O)C(=O)Nc1ccc(Cc2ccc(NC(=O)N(O)C(C)C)cc2)cc1` [Example 2, 4,4'-Methylenebis(1-hydroxy-1-isopropyl-3-phenylurea)]: in experiment [1], the IC50 was found to be 1700 nM. In addition, in experiment [2], the inhibition at 0.1 µM was 32%, the inhibition at 1 µM amounted to 55% and the inhibition at 10 µM was found to be 54%. The compound also came in with an inhibition in vivo at 50 mg/kg in experiment [3] of 34%.

Consider `O=C(Nc1ccc(Cc2ccc(NC(=O)N(O)Cc3ccccc3)cc2)cc1)N(O)Cc1ccccc1` [Example 3, 4,4'-Methylenebis(1-hydroxy-1-benzyl-3-phenylurea)], for which the IC50 in experiment [1] was 320 nM. In addition, in experiment [2], the inhibition at 0.1 µM is 25%, the inhibition at 1 µM is 56% and the inhibition at 10 µM came out at 74%. The compound further had an inhibition in vivo at 50 mg/kg in experiment [3] of 6%.

These data come from patent US6121323A, “Bishydroxyureas” (3M Innovative Properties Company, priority 1997, dated 2000).
